Columns and labels:
male dd-strain mice = experiment: Acute toxicity test; assay type: in vivo; details: mortality for 7 days after administration
Protocol: Groups of male dd-strain mice (each croup consisting of five mice) weighing 20 + 1 g are used. Compound I are administered orally (po : 0.3 mg/g) or intraperitoneally (ip : 0.1 mg/g). The MLD lethal dose) is calculated from the mortality for 7 days after the administration to obtain the results given in Table 1.

PCA response = experiment: Antiasthmatic activity test: passive cutaneous anaphylaxis response (PCA response); assay type: in vivo, Wistar strain male rats; details: Rattus norvegicus, rats; for minimal effective dose: po, minimum effective dose, depressing ratio of 50% or more counts as positive, read-out: MED; for inhibition in vivo at 50 mg/kg: Dose 50 mg/Kg PO; for inhibition in vivo at 100 mg/kg: Dose 100 mg/Kg PO; for inhibition in vivo at 2.5 mg/kg: Dose 2.5 mg/Kg PO; for inhibition in vivo at 5 mg/kg: Dose 5 mg/Kg PO; for inhibition in vivo at 10 mg/kg: Dose 10 mg/Kg PO; for inhibition in vivo at 25 mg/kg: Dose 25 mg/Kg PO
Protocol: Antiasthmatic activity is evaluated according to passive cutaneous anaphylaxis response (PCA response). Antiserum is collected from Wistar strain male rats weighing 200 to 250 g. PCA response is evaluated using Wistar strain male rats weighing 100 to 120 g.
One mg of egg albumin is dissolved in 0.5 ml of pertussisdiphtheria mixed vaccine, and the resulting solution is mixed with 0.5 ml of incomplete adjuvant. The resulting emulsion is used as antigen and administered to rats subcutaneously through the sole. On the 12th day after the administration, heads of the rats are cut to collect blood. Thus, antiserum is prepared.
Upon evaluating antiasthmatic activity, concentration of the antiserum is adjusted so that diameter of blue-dyed portion is about 8 to about 10 mm.
Six rats are used per group. 0.05 ml of the antiserum is intracutaneously administered to each of the previously back-shaved rats to sensitize. After 17 hours, compound I or the solutions thereof (physiological salt solution or CMC solution) are respectively administered and, after 60 minutes, an antigen mixture (1% Evans' Blue physiological salt solution containing 0.2% egg albumin) is injected intravenously in an amount of 0.5 ml/100 g to induce PCA. response. After 30 minutes, rats are choked to death followed by cutting out skin to measure the diameter of blue-dyed portion. The results are evaluated by awarding a score according to the diameter of blue―dved portion. Furthermore, ratios of the diameters to that of solvent (psysiological salt solution or CMC) administered group are snowing a depressing ratio of 50% or more calculated according to the following formula are concluded to show positive antiasthmatic activity. Also, the minimum effective dose (MED) is determined from the results with respective doses to compare the strength of entrasthamatis activity.

[1] = given 60 minutes before antigen, read-out: depressing ratio

SMILES	MLD (male dd-strain mice; ip)	MLD (male dd-strain mice; po)	minimal effective dose (PCA response)	inhibition in vivo at 50 mg/kg (PCA response; [1])	inhibition in vivo at 100 mg/kg (PCA response; [1])	inhibition in vivo at 2.5 mg/kg (PCA response; [1])	inhibition in vivo at 5 mg/kg (PCA response; [1])	inhibition in vivo at 10 mg/kg (PCA response; [1])	inhibition in vivo at 25 mg/kg (PCA response; [1])	inhibition in vivo at 1 mg/kg (PCA response; Dose 1 mg/Kg PO, given 60 minutes before antigen, read-out: depressing ratio)
CCN(CC)CCSC1c2ccccc2COc2c(C)cccc21 (stereo not drawn) [Compound 3, 4-methyl-11-[2-(diethylamino)ethyl]thio-6,11-dihydrodibenz[b,e]oxepin]	>100 mg/kg	>300 mg/kg	100 mg/kg	14%	52%	–	–	–	–	–
CCc1ccc2c(c1)C(SCCN(C)C)c1ccccc1CO2 (stereo not drawn) [Compound 7, 2-ethyl-11-[2-(dimethylamino)ethyl]thio-6,11-dihydrodibenz[b,e]oxepin]	>100 mg/kg	>300 mg/kg	5 mg/kg	100%	100%	30%	81%	100%	100%	–
Cc1ccc2c(c1)OCc1ccccc1C2SCCN(C)C (stereo not drawn) [Compound 11, 3-methyl-11-[2-(dimethylamino)ethyl]thio-6,11-dihydrodibenz[b,e]oxepin]	>100 mg/kg	>300 mg/kg	50 mg/kg	61%	61%	–	–	0%	28%	–
CCc1ccc2c(c1)C(SCCN(C(C)C)C(C)C)c1ccccc1CO2 (stereo not drawn) [Compound 9, 2-ethyl-11-[2-(diisopropylamino)ethyl]thio-6,11-dihydrodibenz[b,e]oxepin]	>100 mg/kg	>300 mg/kg	25 mg/kg	100%	100%	–	–	22%	67%	–
CN(C)CCSC1c2ccccc2COc2ccc(F)cc21 (stereo not drawn) [Compound 8, 2-fluoro-11-[2-(dimethylamino)ethyl]thio-6,11-dihydrodibenz[b,e]oxepin]	>100 mg/kg	>300 mg/kg	25 mg/kg	100%	100%	–	23%	33%	100%	–
CCc1ccc2c(c1)C(SCCN(CC)CC)c1ccccc1CO2 (stereo not drawn) [Compound 5, 2-ethyl-11-[2-(diethylamino)ethyl]thio-6,11-dihydrodibenz[b,e]oxepin]	100 mg/kg	>300 mg/kg	10 mg/kg	100%	100%	–	36%	56%	100%	–
CCN(CC)CCSC1c2ccccc2COc2ccc(C)cc21 (stereo not drawn) [Compound 2, 2-methyl-11-[2-(diethylamino)ethyl]thio-6,11-dihydrodibenz[b,e]oxepin]	>100 mg/kg	>300 mg/kg	10 mg/kg	100%	100%	20%	40%	52%	100%	–
Cc1ccc2c(c1)C(SCCN(C)C)c1ccccc1CO2 (stereo not drawn) [Compound 1, 2-methyl-11-[2-(dimethylamino)ethyl]thio-6,11-dihydrodibenz[b,e]oxepin]	>100 mg/kg	>300 mg/kg	2.5 mg/kg	100%	100%	81%	100%	100%	100%	49%
CCN(CC)CCSC1c2ccccc2COc2ccc(F)cc21 (stereo not drawn) [Compound 6, 2-fluoro-11-[2-(diethylamino)ethyl]thio-6,11-dihydrodibenz[b,e]oxepin]	>100 mg/kg	>300 mg/kg	25 mg/kg	100%	100%	–	–	3%	84%	–
CC(C)N(CCSC1c2ccccc2COc2ccc(F)cc21)C(C)C (stereo not drawn) [Compound 10, 2-fluoro-11-[2-(diisopropylamino)ethyl]thio-6,11-dihydrodibenz[b,e]oxepin]	>100 mg/kg	>300 mg/kg	100 mg/kg	11%	73%	–	–	0%	11%	–
CCN(CC)CCSC1c2ccccc2COc2ccc(Cl)cc21 (stereo not drawn) [Compound 4, 2-chloro-11-[2-(diethylamino)ethyl]thio-6,11-dihydrodibenz[b,e]oxepin]	>100 mg/kg	>300 mg/kg	50 mg/kg	100%	100%	–	–	10%	46%	–

Source: patent EP0085870A1, “Dibenz(b,e)oxepin derivatives and pharmaceutical compositions containing them” (KYOWA HAKKO KOGYO CO., LTD, priority 1982, dated 1983)
